The text below walks through data of patent publication EP2058315A1, “1H-Furo[3,2-C]Pyrazoles active as aurora kinase inhibitors” (Nerviano Medical Sciences S.r.l., priority 2007, dated 2009).

Molecules are shown by their SMILES.

For this experiment, the target named is T1, Aurora-2 (Homo sapiens, UniProt O14965).
T1 sequence (O14965 1-403): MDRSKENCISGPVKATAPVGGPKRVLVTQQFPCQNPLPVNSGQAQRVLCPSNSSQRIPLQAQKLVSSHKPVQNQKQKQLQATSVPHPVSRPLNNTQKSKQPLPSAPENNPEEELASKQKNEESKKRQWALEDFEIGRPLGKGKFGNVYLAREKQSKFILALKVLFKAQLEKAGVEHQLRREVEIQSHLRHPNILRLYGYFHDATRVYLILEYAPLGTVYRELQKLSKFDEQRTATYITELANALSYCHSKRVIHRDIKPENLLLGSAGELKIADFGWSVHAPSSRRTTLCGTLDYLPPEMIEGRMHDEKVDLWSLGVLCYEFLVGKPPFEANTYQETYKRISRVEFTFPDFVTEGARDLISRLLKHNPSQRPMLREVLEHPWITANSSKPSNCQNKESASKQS
Nature of the experiment: Inhibition assay of Aurora-2 activity (SPA technology). Format: biochemical. Conditions: screened according to the methods of the pharmacology section; read-out: IC50values for Aur2 inhibition. How it is done:
The inhibiting activity and the potency of selected compounds is determined through a method of assay based on the use of the SPA technology (Amersham Pharmacia Biotech).
The assay consists of the transfer of radioactivity labelled phosphate moiety by the kinase to a biotinylated substrate. The resulting 33P-labelled biotinylated product is allowed to bind to streptavidin-coated SPA beads (biotin capacity 130 pmol/mg), and light emitted was measured in a scintillation counter.
Kinase reaction: 8 µM biotinylated peptide (4 repeats of LRRWSLG, commercially available from Sigma, catalogue no. L-3523), 10 µM ATP (0.5 uCi P^33γ-ATP), 7.5 ng Aurora 2, inhibitor in a final volume of 30 µl buffer (HEPES 50 mM pH 7.0, MgCl2 10 mM, 1 mM DTT, 0.2 mg/mL BSA, 3 µM orthovanadate) were added to each well of a 96 U bottom well plate. After 60 minutes at room temperature incubation, the reaction was stopped and biotinylated peptide captured by adding 100 µl of bead suspension.
Stratification: 100 µl of CsCl 5 M were added to each well and stood for 4 hours before radioactivity was counted in the Top-Count instrument.
IC50 determination: inhibitors were tested at different concentrations ranging from 0.0015 to 10 µM. Experimental data were analyzed by the computer program GraphPad Prizm using the four parameter logistic equation: y = bottom+(top-bottom)/(1+10^((logIC50-x)*slope)) where x is the logarithm of the inhibitor concentration, y is the response; y starts at bottom and goes to top with a sigmoid shape. Ki calculation: Experimental method: Reaction was carried out in buffer (10 mM Tris, pH 7.5, 10 mM MgCl2, 0.2 mg/mL BSA, 7.5 mM DTT) containing 3.7 nM enzyme, histone and ATP (constant ratio of cold/labeled ATP 1/3000). The reaction was stopped with EDTA and the substrate captured on phosphomembrane (Multiscreen 96 well plates from Millipore). After extensive washing, the multiscreen plates were read on a top counter. Control (time zero) for each ATP and histone concentrations was measured.
`CC(C)(NC(=O)c1cc2[nH]nc(NC(=O)c3ccoc3)c2o1)c1ccccc1` [Compound 62, 3-(3-furoylamino)-N-(1-methyl-1-phenylethyl)-1H-furo[3,2-c]pyrazole-5-carboxamide]: the IC50 was < 10 nM.
Next, `Cc1csc(C(=O)Nc2n[nH]c3cc(C(=O)NC(C)(C)c4ccccc4)oc23)c1` [Compound 48, N-(1-methyl-1-phenylethyl)-3-{[(4-methyl-2-thienyl)carbonyl]amino}-1H-furo[3,2-c]pyrazole-5-carboxamide]: < 10 nM.
Next, `CN1CCN(c2ccc(C(=O)Nc3n[nH]c4cc(C(=O)NC(C)(C)c5ccccc5F)oc34)cc2)CC1` [Compound 67, N-[1-(2-fluorophenyl)-1-methylethyl]-3-{[4-(4-methylpiperazin-1-yl)benzoyl]amino}-1H-furo[3,2-c]pyrazole-5-carboxamide]: < 10 nM; `CC(C)(NC(=O)c1cc2[nH]nc(NC(=O)c3ccco3)c2o1)c1ccccc1` [Compound 28, 3-(2-furoylamino)-N-(1-methyl-1-phenylethyl)-1H-furo[3,2-c]pyrazole-5-carboxamide]: < 10 nM; `COc1ccc(C(=O)Nc2n[nH]c3cc(C(=O)NC(C)(C)c4ccccc4)oc23)cc1` [Compound 18, 3-[(4-methoxybenzoyl)amino]-N-(1-methyl-1-phenylethyl)-1H-furo[3,2-c]pyrazole-5-carboxamide]: < 10 nM.
Next, `CN1CCN(Cc2ccc(C(=O)Nc3n[nH]c4cc(C(=O)NC(C)(C)c5ccccc5F)oc34)cc2)CC1` [Compound 60, N-[1-(2-fluorophenyl)-1-methylethyl]-3-({4-[(4-methylpiperazin-1-yl)methyl]benzoyl}amino)-1H-furo[3,2-c]pyrazole-5-carboxamide]: < 10 nM; `CC(C)(NC(=O)c1cc2[nH]nc(NC(=O)c3ccc(F)cc3)c2o1)c1ccccc1` [Compound 4, 3-[(4-fluorobenzoyl)amino]-N-(1-methyl-1-phenylethyl)-1H-furo[3,2-c]pyrazole-5-carboxamide]: < 10 nM.
Turning to `CC(C)(NC(=O)c1cc2[nH]nc(NC(=O)c3ccco3)c2o1)c1ccccc1F` [Compound 39, N-[1-(2-fluorophenyl)-1-methylethyl]-3-(2-furoylamino)-1H-furo[3,2-c]pyrazole-5-carboxamide], the IC50 was < 10 nM.
Next, `CN1CCN(c2ccc(C(=O)Nc3n[nH]c4cc(C(=O)NC5(c6ccccc6)CCCC5)oc34)cc2)CC1` [Compound 27, 3-{[4-(4-methylpiperazin-1-yl)benzoyl]amino}-N-(1-phenylcyclopentyl)-1H-furo[3,2-c]pyrazole-5-carboxamide]: < 10 nM; `Cc1ccc(C(=O)Nc2n[nH]c3cc(C(=O)NC(C)(C)c4ccccc4)oc23)o1` [Compound 51, 3-[(5-methyl-2-furoyl)amino]-N-(1-methyl-1-phenylethyl)-1H-furo[3,2-c]pyrazole-5-carboxamide]: < 10 nM; `CC(C)(NC(=O)c1cc2[nH]nc(NC(=O)c3cccs3)c2o1)c1ccccc1F` [Compound 57, N-[1-(2-fluorophenyl)-1-methylethyl]-3-[(2-thienylcarbonyl)amino]-1H-furo[3,2-c]pyrazole-5-carboxamide]: < 10 nM.
For `CC(C)(NC(=O)c1cc2[nH]nc(NC(=O)c3ccc(CN4CCCCC4)cc3)c2o1)c1ccccc1` [Compound 59, N-(1-methyl-1-phenylethyl)-3-{[4-(piperidin-1-ylmethyl)benzoyl]amino}-1H-furo[3,2-c]pyrazole-5-carboxamide], the IC50 is < 10 nM.
Next, `CC(C)(NC(=O)c1cc2[nH]nc(NC(=O)c3ccc(CN4CCC4)cc3)c2o1)c1ccccc1` [Compound 43, 3-{[4-(azetidin-1-ylmethyl)benzoyl]amino}-N-(1-methyl-1-phenylethyl)-1H-furo[3,2-c]pyrazole-5-carboxamide]: < 10 nM; `Cn1nccc1C(=O)Nc1n[nH]c2cc(C(=O)NC(C)(C)c3ccccc3)oc12` [Compound 55, N-(1-methyl-1-phenylethyl)-3-{[(1-methyl-1H-pyrazol-5-yl)carbonyl]amino}-1H-furo[3,2-c]pyrazole-5-carboxamide]: < 10 nM.
In the case of `Cc1cc(C(=O)Nc2n[nH]c3cc(C(=O)NC(C)(C)c4ccccc4)oc23)c(C)o1` [Compound 50, 3-[(2,5-dimethyl-3-furoyl)amino]-N-(1-methyl-1-phenylethyl)-1H-furo[3,2-c]pyrazole-5-carboxamide], the IC50 was < 10 nM.
Next, `Cc1ccc(C(=O)Nc2n[nH]c3cc(C(=O)NC(C)(C)c4ccccc4)oc23)s1` [Compound 45, N-(1-methyl-1-phenylethyl)-3-{[(5-methyl-2-thienyl)carbonyl]amino}-1H-furo[3,2-c]pyrazole-5-carboxamide]: < 10 nM.
Take `CC(C)(NC(=O)c1cc2[nH]nc(NC(=O)c3cccs3)c2o1)c1ccc(F)cc1F` [Compound 58, N-[1-(2,4-difluorophenyl)-1-methylethyl]-3-[(2-thienylcarbonyl)amino]-1H-furo[3,2-c]pyrazole-5-carboxamide]: the IC50 was < 10 nM.
For the molecule `Cc1occc1C(=O)Nc1n[nH]c2cc(C(=O)NC(C)(C)c3ccccc3)oc12` [Compound 41, 3-[(2-methyl-3-furoyl)amino]-N-(1-methyl-1-phenylethyl)-1H-furo[3,2-c]pyrazole-5-carboxamide], the IC50 is < 10 nM.
Next, `Cc1ccsc1C(=O)Nc1n[nH]c2cc(C(=O)NC(C)(C)c3ccccc3)oc12` [Compound 44, N-(1-methyl-1-phenylethyl)-3-{[(3-methyl-2-thienyl)carbonyl]amino}-1H-furo[3,2-c]pyrazole-5-carboxamide]: < 10 nM; `CC(C)NCc1ccc(C(=O)Nc2n[nH]c3cc(C(=O)NC(C)(C)c4ccccc4)oc23)cc1` [Compound 70, 3-({4-[(isopropylamino)methyl]benzoyl}amino)-N-(1-methyl-1-phenylethyl)-1H-furo[3,2-c]pyrazole-5-carboxamide]: < 10 nM.
With `Cc1cc(C(=O)Nc2n[nH]c3cc(C(=O)NC(C)(C)c4ccccc4)oc23)n(C)n1` [Compound 38, 3-{[(1,3-dimethyl-1 H-pyrazol-5-yl)carbonyl]amino}-N-(1-methyl-1-phenylethyl)-1H-furo[3,2-c]pyrazole-5-carboxamide], the IC50 is < 10 nM.
On to `CC(C)(NC(=O)c1cc2[nH]nc(NC(=O)c3ccc(OCCN4CCCC4)cc3)c2o1)c1ccccc1` [Compound 68, N-(1-methyl-1-phenylethyl)-3-{[4-(2-pyrrolidin-1-ylethoxy)benzoyl]amino}-1H-furo[3,2-c]pyrazole-5-carboxamide], for which the IC50 is < 10 nM.
On to `Cn1ccc(C(=O)Nc2n[nH]c3cc(C(=O)NC(C)(C)c4ccccc4)oc23)n1` [Compound 56, N-(1-methyl-1-phenylethyl)-3-{[(1-methyl-1H-pyrazol-3-yl)carbonyl]amino}-1H-furo[3,2-c]pyrazole-5-carboxamide], for which the IC50 was < 10 nM.
Next, `Cc1ccoc1C(=O)Nc1n[nH]c2cc(C(=O)NC(C)(C)c3ccccc3)oc12` [Compound 53, 3-[(3-methyl-2-furoyl)amino]-N-(1-methyl-1-phenylethyl)-1H-furo[3,2-c]pyrazole-5-carboxamide]: < 10 nM.
